Measurements published in doi:10.1101/2023.07.29.547699, “Bacterial pathogens deliver water/solute-permeable channels as a virulence strategy” (bioRxiv, 2023).

Tests used:
DspE [1] = molecular target: T1, DspE (Erwinia amylovora, UniProt O54581); experiment: two-electrode voltage clamp, Xenopus oocytes; format: cell-based
T1 construct: full-length untagged ORF in pGH19, cRNA-injected Xenopus laevis oocytes; printed UniProt entry is strain Ea321, strain of the oocyte ORF not restated

DspE [2] = molecular target: T1, DspE; experiment: fluorescent dye uptake, Xenopus oocytes; format: cell-based; settings: permeation through channel; ND96 bath saline with fluorescein, 20 h
AvrE [3] = molecular target: T2, AvrE (Pseudomonas syringae group genomosp. 3, UniProt Q887C9); experiment: fluorescent dye uptake, Xenopus oocytes; format: cell-based; settings: permeation through channel; ND96 bath saline with fluorescein, 20 h
T2 construct: full-length untagged ORF in pGH19, cRNA-injected Xenopus laevis oocytes

AvrE [4] = molecular target: T2, AvrE; experiment: two-electrode voltage clamp, Xenopus oocytes; format: cell-based; settings: 50 mV test pulse; ND96 saline, pH 7.5; inhibitor in bath saline
DspE (MBP-DspE) = molecular target: T3, DspE (MBP-DspE) (Erwinia amylovora, UniProt O54581); experiment: liposome carboxyfluorescein release inhibition; format: biochemical; settings: 20 mM HEPES, 300 mM NaCl, pH 8.0; 0.05-0.15 μM DspE; soybean lipid liposomes; channel blocker
T3 construct: full-length, N-terminal MBP-His8-PPX-FLAG tag kept; E. coli BL21(DE3); reconstituted in soybean liposomes; printed UniProt entry is strain Ea321, cloned gene from Ea273

T1 sequence (O54581 whole entry): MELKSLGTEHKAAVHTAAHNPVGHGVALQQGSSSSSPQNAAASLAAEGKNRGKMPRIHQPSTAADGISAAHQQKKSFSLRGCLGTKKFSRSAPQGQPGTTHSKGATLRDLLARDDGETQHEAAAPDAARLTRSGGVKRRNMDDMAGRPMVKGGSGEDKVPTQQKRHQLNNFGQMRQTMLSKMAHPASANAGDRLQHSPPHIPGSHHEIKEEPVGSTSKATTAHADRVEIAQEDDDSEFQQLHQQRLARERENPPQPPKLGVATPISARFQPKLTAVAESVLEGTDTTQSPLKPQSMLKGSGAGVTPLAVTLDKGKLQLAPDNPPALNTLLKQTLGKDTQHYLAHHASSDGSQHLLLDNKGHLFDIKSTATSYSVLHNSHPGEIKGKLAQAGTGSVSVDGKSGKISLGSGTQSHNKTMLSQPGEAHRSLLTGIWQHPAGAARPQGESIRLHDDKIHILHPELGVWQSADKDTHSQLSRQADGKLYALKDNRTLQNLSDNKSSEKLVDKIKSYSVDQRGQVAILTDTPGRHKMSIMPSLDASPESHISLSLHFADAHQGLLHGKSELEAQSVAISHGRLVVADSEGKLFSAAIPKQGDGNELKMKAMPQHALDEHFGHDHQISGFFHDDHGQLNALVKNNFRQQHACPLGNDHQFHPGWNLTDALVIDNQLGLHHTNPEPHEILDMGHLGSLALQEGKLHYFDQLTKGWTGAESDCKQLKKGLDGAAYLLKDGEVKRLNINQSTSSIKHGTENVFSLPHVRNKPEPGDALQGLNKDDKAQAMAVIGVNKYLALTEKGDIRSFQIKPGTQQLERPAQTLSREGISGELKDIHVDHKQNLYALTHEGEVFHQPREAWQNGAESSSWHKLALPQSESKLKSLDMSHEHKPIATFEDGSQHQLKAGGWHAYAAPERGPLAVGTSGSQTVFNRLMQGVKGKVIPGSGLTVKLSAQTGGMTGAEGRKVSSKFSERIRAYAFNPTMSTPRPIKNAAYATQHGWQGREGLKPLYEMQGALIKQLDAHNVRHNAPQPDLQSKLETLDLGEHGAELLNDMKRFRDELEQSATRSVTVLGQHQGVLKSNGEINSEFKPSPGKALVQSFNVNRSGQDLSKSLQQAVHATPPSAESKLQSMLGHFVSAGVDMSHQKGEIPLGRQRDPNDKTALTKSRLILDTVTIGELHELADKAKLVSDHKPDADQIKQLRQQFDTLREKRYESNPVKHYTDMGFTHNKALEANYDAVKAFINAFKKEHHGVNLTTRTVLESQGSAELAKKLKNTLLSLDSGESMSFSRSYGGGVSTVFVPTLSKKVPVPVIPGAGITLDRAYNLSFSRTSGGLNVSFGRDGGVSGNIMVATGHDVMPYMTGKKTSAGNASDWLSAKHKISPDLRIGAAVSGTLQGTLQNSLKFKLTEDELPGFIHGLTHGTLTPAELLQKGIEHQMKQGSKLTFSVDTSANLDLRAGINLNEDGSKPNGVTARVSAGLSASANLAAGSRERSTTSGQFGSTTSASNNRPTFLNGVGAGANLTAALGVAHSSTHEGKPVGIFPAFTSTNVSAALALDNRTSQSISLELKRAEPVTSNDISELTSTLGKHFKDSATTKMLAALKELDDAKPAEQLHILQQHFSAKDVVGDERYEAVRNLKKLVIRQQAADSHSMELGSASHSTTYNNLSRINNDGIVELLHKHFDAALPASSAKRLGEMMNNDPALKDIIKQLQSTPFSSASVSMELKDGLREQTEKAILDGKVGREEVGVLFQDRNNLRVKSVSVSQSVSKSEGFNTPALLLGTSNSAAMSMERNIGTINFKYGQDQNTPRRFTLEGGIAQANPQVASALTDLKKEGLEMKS
T2 sequence (Q887C9 whole entry): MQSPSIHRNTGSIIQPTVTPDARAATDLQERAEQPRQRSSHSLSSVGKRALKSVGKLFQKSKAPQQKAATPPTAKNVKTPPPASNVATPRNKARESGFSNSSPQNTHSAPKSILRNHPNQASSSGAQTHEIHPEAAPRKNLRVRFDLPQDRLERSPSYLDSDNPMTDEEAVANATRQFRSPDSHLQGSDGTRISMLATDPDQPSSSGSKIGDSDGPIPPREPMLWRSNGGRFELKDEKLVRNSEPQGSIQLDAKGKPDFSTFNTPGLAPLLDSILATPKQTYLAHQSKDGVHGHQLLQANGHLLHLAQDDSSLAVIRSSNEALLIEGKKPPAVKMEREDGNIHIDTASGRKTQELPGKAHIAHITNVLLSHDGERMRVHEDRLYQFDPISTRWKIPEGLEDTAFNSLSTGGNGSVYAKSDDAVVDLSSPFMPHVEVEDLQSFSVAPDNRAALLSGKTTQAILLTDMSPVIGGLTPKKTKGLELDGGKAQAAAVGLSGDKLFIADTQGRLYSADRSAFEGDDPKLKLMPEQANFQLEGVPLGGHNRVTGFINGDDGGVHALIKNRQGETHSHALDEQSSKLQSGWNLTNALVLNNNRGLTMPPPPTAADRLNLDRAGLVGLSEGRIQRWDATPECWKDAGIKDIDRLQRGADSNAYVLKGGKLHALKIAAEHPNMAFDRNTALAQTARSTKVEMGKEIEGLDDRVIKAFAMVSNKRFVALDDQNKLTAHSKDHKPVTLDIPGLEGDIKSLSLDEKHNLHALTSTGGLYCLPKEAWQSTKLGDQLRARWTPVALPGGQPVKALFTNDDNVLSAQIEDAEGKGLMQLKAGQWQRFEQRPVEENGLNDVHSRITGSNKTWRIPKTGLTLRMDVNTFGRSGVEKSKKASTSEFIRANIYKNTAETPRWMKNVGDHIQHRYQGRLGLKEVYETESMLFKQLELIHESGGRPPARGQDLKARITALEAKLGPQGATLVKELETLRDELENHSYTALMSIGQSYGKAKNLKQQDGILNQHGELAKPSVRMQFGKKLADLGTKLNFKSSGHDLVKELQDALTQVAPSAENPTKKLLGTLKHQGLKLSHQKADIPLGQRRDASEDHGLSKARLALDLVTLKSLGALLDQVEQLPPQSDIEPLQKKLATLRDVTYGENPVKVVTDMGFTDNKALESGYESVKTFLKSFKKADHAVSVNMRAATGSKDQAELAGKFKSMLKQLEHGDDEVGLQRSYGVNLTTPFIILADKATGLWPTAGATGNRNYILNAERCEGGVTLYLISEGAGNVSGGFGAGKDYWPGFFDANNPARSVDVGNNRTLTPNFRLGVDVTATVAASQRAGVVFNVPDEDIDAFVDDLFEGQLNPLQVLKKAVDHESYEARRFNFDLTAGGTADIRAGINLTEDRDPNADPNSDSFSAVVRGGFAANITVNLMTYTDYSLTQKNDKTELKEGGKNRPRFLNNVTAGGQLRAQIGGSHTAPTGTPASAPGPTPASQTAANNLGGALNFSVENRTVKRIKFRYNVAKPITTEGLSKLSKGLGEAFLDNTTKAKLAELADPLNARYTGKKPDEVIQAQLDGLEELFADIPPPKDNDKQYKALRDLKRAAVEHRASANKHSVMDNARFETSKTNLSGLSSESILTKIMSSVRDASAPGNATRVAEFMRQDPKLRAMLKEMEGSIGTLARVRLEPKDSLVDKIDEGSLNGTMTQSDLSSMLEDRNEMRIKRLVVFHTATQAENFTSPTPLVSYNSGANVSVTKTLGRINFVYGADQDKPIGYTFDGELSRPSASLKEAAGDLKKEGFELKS

Compound NCCNC(=O)CCN(CCC(=O)NCCN)CCN(CCC(=O)NCCN)CCC(=O)NCCN [G0, PAMAM G0] has an inhibition at 10000 µM (DspE [1]; read-out: % inhibition at 10 mM) of 68%.
For O=C1OC2(c3ccc(O)cc3Oc3cc(O)ccc32)c2ccccc21 [fluorescein], the “fluorescent dye uptake, Xenopus oocytes” value (DspE [2]) was “fluorescein entered oocytes expressing DspE or AvrE, whereas eGFP could not” and the “fluorescent dye uptake, Xenopus oocytes” value (AvrE [3]) was “fluorescein entered oocytes expressing DspE or AvrE, whereas eGFP could not”.
For PAMAM G1, the “% inhibition at 10 mM” value (AvrE [4]) was 93%, the “% inhibition at 10 mM” value (DspE [1]; 50 mV test pulse, ND96 saline, pH 7.5, inhibitor in bath saline) was 71% and the IC50 (DspE (MBP-DspE)) was 31 µM.
